From patent publication US6737383B1, “Herbicidal oxadiazolidines” (priority 1999, dated 2004)

Columns and labels:
bedstraw = test: Test B pre/postemergence bedstraw; assay type: in vivo, Galium aparine
Summary of the method: (§1)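 Test chemicals in a non-phytotoxic solvent mixture with surfactant were sprayed preemergence onto planted seeds and postemergence onto plants 2 to 18 cm tall (1- to 4-leaf stage). After twelve to sixteen days in a greenhouse, injury was visually rated against untreated controls from 0 (no effect) to 10 (complete control).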

blackgrass = test: Test B pre/postemergence blackgrass; assay type: in vivo, Alopecurus myosuroides
Summary of the method: as §1

surinam grass = test: Test B pre/postemergence surinam grass; assay type: in vivo, Brachiaria decumbens
Summary of the method: as §1

corn = test: Test B pre/postemergence corn; assay type: in vivo, Zea mays
Summary of the method: as §1

crabgrass = test: Test B pre/postemergence crabgrass; assay type: in vivo, Digitaria sanguinalis
Summary of the method: as §1

giant foxtail = test: Test B pre/postemergence giant foxtail; assay type: in vivo, Setaria faberii
Summary of the method: as §1

rape = test: Test B pre/postemergence rape; assay type: in vivo, Brassica napus
Summary of the method: as §1

sugar beet = test: Test B pre/postemergence sugar beet; assay type: in vivo, Beta vulgaris
Summary of the method: as §1

velvetleaf = test: Test B pre/postemergence velvetleaf; assay type: in vivo, Abutilon theophrasti
Summary of the method: as §1

wheat = test: Test B pre/postemergence wheat; assay type: in vivo, Triticum aestivum
Summary of the method: as §1

wild oat = test: Test B pre/postemergence wild oat; assay type: in vivo, Avena fatua
Summary of the method: as §1

purple nutsedge = test: Test B pre/postemergence purple nutsedge; assay type: in vivo, Cyperus rotundus
Summary of the method: as §1

rice = test: Test B flood test rice; assay type: in vivo, Oryza sativa
Summary of the method: (§2)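 Flood test on plants grown to the 2-leaf stage; treated plants kept in greenhouse twelve to sixteen days, then visually rated against controls on a 0 (no effect) to 10 (complete control) scale.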

smallflower flatsedge = test: Test B flood test smallflower flatsedge; assay type: in vivo, Cyperus difformis
Summary of the method: as §2

duck salad = test: Test B flood test duck salad; assay type: in vivo, Heteranthera limosa
Summary of the method: as §2

bamyardgrass = test: Test B flood test barnyardgrass; assay type: in vivo, Echinochloa crus-galli
Summary of the method: as §2

[1] = Postemergence, Rate 62 g/ha, scale 0 to 10, 0 is no effect, 10 is complete control
[2] = Postemergence, Rate 250 g/ha, scale 0 to 10, 0 no effect, 10 complete control
[3] = Preemergence, Rate 62 g/ha, scale 0 to 10 (0 no effect, 10 complete control)
[4] = Preemergence, Rate 125 g/ha, scale 0 to 10 (0 no effect, 10 complete control)
[5] = Preemergence, Rate 250 g/ha, scale of 0 to 10 where 0 is no effect and 10 is complete control
[6] = Preemergence, Rate 500 g/ha, scale 0 (no effect) to 10 (complete control)
[7] = Rate 125 g/ha, Postemergence, scale 0 to 10, 0 no effect, 10 complete control
[8] = Rate 500 g/ha, Postemergence, scale 0 to 10, 0 no effect, 10 complete control
[9] = Rate 125 g/ha, Postemergence section (flood test species), scale 0 to 10, 0 no effect, 10 complete control
[10] = Rate 500 g/ha, listed under Postemergence (flood test species), scale 0 to 10, 0 no effect, 10 complete control
[11] = flood test, listed under Postemergence, Rate 250 g/ha, scale 0 to 10, 0 no effect, 10 complete control

## Cc1nn(C)c(C)c1-n1c(=O)on(C(=O)N(c2ccc(F)cc2F)C(C)C)c1=O [Compound 76]
bedstraw; [1]
  Bedstraw plant response rating: 0
bedstraw; [2]
  Bedstraw plant response rating: 2
bedstraw; [3]
  Bedstraw plant response rating: 0
bedstraw; [4]
  Plant response rating, Bedstraw: 0
bedstraw; [5]
  Plant response rating, Bedstraw: 0
bedstraw; [6]
  Bedstraw plant response rating: 0
bedstraw; [7]
  Bedstraw plant response rating: 0
bedstraw; [8]
  Bedstraw plant response rating: 4
blackgrass; [1]
  Blackgrass plant response rating: 0
blackgrass; [2]
  Blackgrass plant response rating: 6
blackgrass; [3]
  Blackgrass plant response rating: 0
blackgrass; [4]
  Plant response rating, Blackgrass: 2
blackgrass; [5]
  Plant response rating, Blackgrass: 4
blackgrass; [6]
  Blackgrass plant response rating: 8
blackgrass; [7]
  Blackgrass plant response rating: 2
blackgrass; [8]
  Blackgrass plant response rating: 8
Surinam grass; [1]
  B. signalgrass plant response rating: 0
Surinam grass; [2]
  B. signalgrass plant response rating: 5
Surinam grass; [3]
  B. signalgrass plant response rating: 0
Surinam grass; [4]
  Plant response rating, B. signalgrass: 0
Surinam grass; [5]
  Plant response rating, B. signalgrass: 2
Surinam grass; [6]
  B. signalgrass plant response rating: 8
Surinam grass; [7]
  B. signalgrass plant response rating: 0
Surinam grass; Rate 500 g/ha, Postemergence, scale of 0 to 10 where 0 is no effect and 10 is complete control
  B. signalgrass plant response rating: 9
corn; [1]
  Corn plant response rating: 0
corn; [2]
  Corn plant response rating: 0
corn; [3]
  Corn plant response rating: 0
corn; [4]
  Plant response rating, Corn: 0
corn; [5]
  Plant response rating, Corn: 2
corn; [6]
  Corn plant response rating: 4
corn; [7]
  Corn plant response rating: 0
corn; [8]
  Corn plant response rating: 0
crabgrass; [1]
  Crabgrass plant response rating: 2
crabgrass; [2]
  Crabgrass plant response rating: 8
crabgrass; [3]
  Crabgrass plant response rating: 3
crabgrass; [4]
  Plant response rating, Crabgrass: 4
crabgrass; [5]
  Plant response rating, Crabgrass: 8
crabgrass; [6]
  Crabgrass plant response rating: 8
crabgrass; [7]
  Crabgrass plant response rating: 4
crabgrass; [8]
  Crabgrass plant response rating: 9
Giant foxtail; [1]
  Giant foxtail plant response rating: 3
Giant foxtail; [2]
  Giant foxtail plant response rating: 7
Giant foxtail; [3]
  Giant foxtail plant response rating: 4
Giant foxtail; [4]
  Plant response rating, Giant foxtail: 9
Giant foxtail; [5]
  Plant response rating, Giant foxtail: 9
Giant foxtail; [6]
  Giant foxtail plant response rating: 9
Giant foxtail; [7]
  Giant foxtail plant response rating: 4
Giant foxtail; [8]
  Giant foxtail plant response rating: 9
rape; [1]
  Rape plant response rating: 0
rape; [2]
  Rape plant response rating: 0
rape; [3]
  Rape plant response rating: 0
rape; [4]
  Plant response rating, Rape: 0
rape; [5]
  Plant response rating, Rape: 0
rape; [6]
  Rape plant response rating: 0
rape; [7]
  Rape plant response rating: 0
rape; [8]
  Rape plant response rating: 2
Sugar beet; [1]
  Sugarbeets plant response rating: 0
Sugar beet; [2]
  Sugarbeets plant response rating: 2
Sugar beet; [3]
  Sugarbeets plant response rating: 0
Sugar beet; [4]
  Plant response rating, Sugarbeets: 0
Sugar beet; [5]
  Plant response rating, Sugarbeets: 0
Sugar beet; [6]
  Sugarbeets plant response rating: 0
Sugar beet; [7]
  Sugarbeets plant response rating: 0
Sugar beet; [8]
  Sugarbeets plant response rating: 3
velvetleaf; [1]
  Velvetleaf plant response rating: 0
velvetleaf; [2]
  Velvetleaf plant response rating: 3
velvetleaf; [3]
  Velvetleaf plant response rating: 0
velvetleaf; [4]
  Plant response rating, Velvetleaf: 0
velvetleaf; [5]
  Plant response rating, Velvetleaf: 0
velvetleaf; [6]
  Velvetleaf plant response rating: 0
velvetleaf; [7]
  Velvetleaf plant response rating: 0
velvetleaf; [8]
  Velvetleaf plant response rating: 4
wheat; [1]
  Wheat plant response rating: 0
wheat; [2]
  Wheat plant response rating: 0
wheat; [3]
  Wheat plant response rating: 0
wheat; [4]
  Plant response rating, Wheat: 0
wheat; [5]
  Plant response rating, Wheat: 0
wheat; [6]
  Wheat plant response rating: 2
wheat; [7]
  Wheat plant response rating: 0
wheat; [8]
  Wheat plant response rating: 3
Wild oat; [1]
  Wild oats plant response rating: 0
Wild oat; [2]
  Wild oats plant response rating: 2
Wild oat; [3]
  Wild oats plant response rating: 0
Wild oat; [4]
  Plant response rating, Wild oats: 0
Wild oat; [5]
  Plant response rating, Wild oats: 4
Wild oat; [6]
  Wild oats plant response rating: 4
Wild oat; [7]
  Wild oats plant response rating: 0
Wild oat; [8]
  Wild oats plant response rating: 5
Purple nutsedge; [1]
  Nutsedge plant response rating: 0
Purple nutsedge; [2]
  Nutsedge plant response rating: 0
Purple nutsedge; [3]
  Nutsedge plant response rating: 0
Purple nutsedge; [4]
  Plant response rating, Nutsedge: 0
Purple nutsedge; [5]
  Plant response rating, Nutsedge: 0
Purple nutsedge; [6]
  Nutsedge plant response rating: 0
Purple nutsedge; [7]
  Nutsedge plant response rating: 0
Purple nutsedge; [8]
  Nutsedge plant response rating: 0
rice; [1]
  Rice plant response rating: 0
rice; [9]
  Rice plant response rating: 0
rice; [10]
  Rice plant response rating: 3
rice; [11]
  Rice plant response rating: 3
Smallflower flatsedge; [1]
  S. Flatsedge plant response rating: 0
Smallflower flatsedge; [9]
  S. Flatsedge plant response rating: 0
Smallflower flatsedge; [10]
  S. Flatsedge plant response rating: 0
Smallflower flatsedge; [11]
  S. Flatsedge plant response rating: 0
Duck salad; [1]
  Ducksalad plant response rating: 0
Duck salad; [9]
  Ducksalad plant response rating: 0
Duck salad; [10]
  Ducksalad plant response rating: 0
Duck salad; [11]
  Ducksalad plant response rating: 0
bamyardgrass; [1]
  Barnyardgrass plant response rating: 0
bamyardgrass; [9]
  Barnyardgrass plant response rating: 0
bamyardgrass; [10]
  Barnyardgrass plant response rating: 0
bamyardgrass; [11]
  Barnyardgrass plant response rating: 0
